Assay results taken from patent US8598202B2, “Aryl-hydroxyethylamino-pyrimidines and triazines as modulators of fatty acid amide hydrolase” (Janssen Pharmaceutica NV, priority 2008, dated 2013).
Structures can show the parent of a compound that is named as a salt.

How the values were obtained:
FAAH [1] = molecular target: T1, FAAH (Homo sapiens, UniProt O00519); settings: reported; cited from earlier work
T1 sequence (O00519 1-579): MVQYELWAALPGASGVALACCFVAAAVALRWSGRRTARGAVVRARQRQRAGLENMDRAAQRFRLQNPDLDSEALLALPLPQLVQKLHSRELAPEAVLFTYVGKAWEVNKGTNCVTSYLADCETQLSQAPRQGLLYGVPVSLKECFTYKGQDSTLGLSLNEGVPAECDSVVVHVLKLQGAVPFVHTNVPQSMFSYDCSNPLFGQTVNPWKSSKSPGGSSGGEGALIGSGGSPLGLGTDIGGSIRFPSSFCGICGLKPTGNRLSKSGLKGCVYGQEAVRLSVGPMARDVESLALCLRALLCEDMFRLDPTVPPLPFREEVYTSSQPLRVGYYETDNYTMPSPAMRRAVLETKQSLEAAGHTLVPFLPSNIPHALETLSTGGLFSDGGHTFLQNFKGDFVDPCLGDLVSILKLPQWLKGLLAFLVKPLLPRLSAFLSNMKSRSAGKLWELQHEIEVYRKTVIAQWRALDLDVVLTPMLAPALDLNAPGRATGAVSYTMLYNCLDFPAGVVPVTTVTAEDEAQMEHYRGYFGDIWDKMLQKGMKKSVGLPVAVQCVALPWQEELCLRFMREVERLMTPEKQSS

thermal nociception [2] = settings: rats; WO 04/033652; cited from earlier work
thermal nociception [3] = settings: rat; cited from earlier work
[4] = test system: acute thermal nociception; settings: rats; WO 02/087569; cited from earlier work
neuropathic pain = settings: rats; WO 02/087569; cited from earlier work
anxiety = settings: rats; Kathuria 2003; cited from earlier work
nociception = settings: rat; Kathuria 2003; cited from earlier work
spasticity = settings: Baker 2001; cited from earlier work
Rat FAAH-1 = molecular target: T2, Rat FAAH-1 (Rattus norvegicus, UniProt P97612); assay: Assay Method 2: rat FAAH-1 assay, 3H-anandamide hydrolysis in homogenate of SK-N-MC cells transfected with rat FAAH
T2 sequence (P97612 1-579): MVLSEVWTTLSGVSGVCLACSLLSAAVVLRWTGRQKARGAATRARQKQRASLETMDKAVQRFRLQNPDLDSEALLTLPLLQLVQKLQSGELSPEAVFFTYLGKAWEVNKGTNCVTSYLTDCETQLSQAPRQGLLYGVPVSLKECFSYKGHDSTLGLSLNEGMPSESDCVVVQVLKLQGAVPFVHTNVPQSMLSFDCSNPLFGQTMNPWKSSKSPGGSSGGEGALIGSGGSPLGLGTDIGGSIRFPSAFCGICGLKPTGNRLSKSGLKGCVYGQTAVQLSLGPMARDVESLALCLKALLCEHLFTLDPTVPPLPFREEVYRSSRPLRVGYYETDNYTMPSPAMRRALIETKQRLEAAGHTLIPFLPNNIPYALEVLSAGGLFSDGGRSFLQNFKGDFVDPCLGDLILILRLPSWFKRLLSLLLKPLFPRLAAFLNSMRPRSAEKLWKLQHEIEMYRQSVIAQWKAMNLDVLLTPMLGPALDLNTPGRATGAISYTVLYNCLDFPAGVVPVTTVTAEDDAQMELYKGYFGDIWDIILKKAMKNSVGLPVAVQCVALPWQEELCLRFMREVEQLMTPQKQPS

FAAH [5] = molecular target: T1, FAAH; assay: Assay Method 1: FAAH assay, 3H-anandamide hydrolysis in homogenate of T84 cells or SK-N-MC cells transfected with human FAAH

| Structure (SMILES) | IC50 (Rat FAAH-1) | IC50 (FAAH [5]) | also measured |
| --- | --- | --- | --- |
| O=C(CCCCCCc1ccccc1)c1ncc(-c2ccccn2)o1 [OL-135] |  |  | inhibition of FAAH (FAAH [1]): potent inhibitor; analgesic activity in tail emersion test (thermal nociception [2]): analgesic activity; analgesic efficacy/activity in hot plate test (thermal nociception [3]): analgesic activity |
| Cc1nc(-c2ccccc2)c(-c2ccccc2)n1CCCCCCNC(=O)Oc1ccccc1F [BMS-1] |  |  | analgesic effect in Hargraves test [4]: analgesic effect; analgesic effect in Chung spinal nerve ligation model (neuropathic pain): analgesic effect |
| NC(=O)c1cccc(-c2cccc(OC(=O)NC3CCCCC3)c2)c1 [URB-597] |  |  | efficacy in zero plus maze model of anxiety (anxiety): efficacy; analgesic efficacy/activity in hot plate test (thermal nociception [3]): analgesic efficacy; analgesic efficacy in formalin test (nociception): analgesic efficacy |
| CCCCCCCCCCCCCCCCS(=O)(=O)F [AM374] |  |  | reduction of spasticity in CREAE mice (spasticity): significantly reduce spasticity |
| COc1ccc(C(O)CNc2cc(-c3ccc(OC(F)(F)F)cc3)ncn2)cc1 (stereo not drawn) [Example 111, 1-[4-(Methyloxy)phenyl]-2-[(6-{4-[(trifluoromethyl)oxy]phenyl}-pyrimidin-4-yl)amino]ethanol] | 220 nM | 122 nM |  |
| N#Cc1cc(C(O)CNc2cc(-c3ccc(C(F)(F)F)c(Cl)c3)ncn2)ccc1F (stereo not drawn) [Example 210] | 20 nM | 20 nM |  |
| O[C@@H](CNc1cc(-c2ccc3sccc3c2)ncn1)c1ccccc1 [Example 100, (1R)-2-{[6-(1-Benzothiophen-5-yl)pyrimidin-4-yl]amino}-1-phenylethanol trifluoroacetic acid salt] | 1400 nM | 43 nM |  |
| Cc1c(NC[C@H](O)c2ccccc2)ncnc1-c1ccc(C(F)(F)F)c(F)c1 [Example 48, (1R)-2-({6-[3-Fluoro-4-(trifluoromethyl)phenyl]-5-methylpyrimidin-4-yl}amino)-1-phenylethanol trifluoroacetic acid salt] | 1500 nM | 105 nM |  |
| OC(CNc1cc(-c2ccc(C(F)(F)F)c(Cl)c2)ncn1)c1ccccc1F (stereo not drawn) [Example 212, 2-({6-[3-Chloro-4-(trifluoromethyl)phenyl]pyrimidin-4-yl}amino)-1-(2-fluorophenyl)ethanol] | 39 nM | 65 nM |  |
| O[C@@H](CNc1cc(-c2csc3ccccc23)ncn1)c1ccccc1 [Example 87, (1R)-2-{[6-(1-Benzothiophen-3-yl)pyrimidin-4-yl]amino}-1-phenylethanol trifluoroacetic acid salt] | 1400 nM | 42 nM |  |
| Cn1c(-c2cc(NC[C@H](O)c3ccccc3)ncn2)cc2ccccc21 [Example 55, (1R)-2-{[6-(1-Methyl-1H-indol-2-yl)pyrimidin-4-yl]amino}-1-phenylethanol trifluoroacetic acid salt] | 1700 nM | 20 nM |  |
| O[C@@H](CNc1cc(-c2cc3cc(OC(F)(F)F)ccc3s2)ncn1)c1ccccc1 [Example 185, (1R)-1-Phenyl-2-({6-[5-(trifluoromethoxy)-1-benzothiophen-2-yl]pyrimidin-4-yl}amino)ethanol trifluoroacetic acid salt] | 90 nM | 20 nM |  |
| OC(CNc1cc(-c2ccc(C(F)(F)F)c(Cl)c2)ncn1)c1ccc(-c2ccccn2)s1 (stereo not drawn) [Example 209, 2-({6-[3-Chloro-4-(trifluoromethyl)phenyl]pyrimidin-4-yl}amino)-1-(5-pyridin-2-ylthiophen-2-yl)ethanol] | 36 nM | 12 nM |  |
| O[C@@H](CNc1cc(-c2cnc(N3CCOCC3)nc2)ncn1)c1ccccc1 [Example 69, (1R)-2-[(2′-Morpholin-4-yl-4,5′-bipyrimidin-6-yl)amino]-1-phenylethanol] | > 10000 nM | 900 nM |  |
| C[C@@H](Nc1cc(-c2ccc(OC(F)(F)F)cc2)ncn1)[C@@H](O)c1ccccc1 [Example 150, (1S,2R)-1-Phenyl-2-[(6-{4-[(trifluoromethyl)oxy]phenyl}pyrimidin-4-yl)amino]propan-1-ol] | 5000 nM | 1500 nM |  |

The remaining compounds from weak to strong by IC50 (Rat FAAH-1), led by results:

| IC50 (Rat FAAH-1) | IC50 (FAAH [5]) | Structure (SMILES) | also measured |
| --- | --- | --- | --- |
| 707 nM | 144 nM | Cc1ccc(-c2cc(NCC(O)c3ccccc3)ncn2)cc1C (stereo not drawn) [Example 223, 2-{[6-(3,4-Dimethylphenyl)pyrimidin-4-yl]amino}-1-phenylethanol] |  |
| 220 nM | 50 nM | CCOc1ccc(-c2cc(NC[C@H](O)c3ccccc3)ncn2)cn1 [Example 64, (1R)-2-{[6-(6-Ethoxypyridin-3-yl)pyrimidin-4-yl]amino}-1-phenylethanol] |  |
| 130 nM | 570 nM | O[C@@H](CNc1cc(-c2ccc(C(F)(F)F)c(Cl)c2)nc(NC2CC2)n1)c1ccccc1 [Example 162, (1R)-2-({6-[3-Chloro-4-(trifluoromethyl)phenyl]-2-(cyclopropylamino)pyrimidin-4-yl}amino)-1-phenylethanol trifluoroacetic acid salt] |  |
| 42 nM | 150 nM | OC(CNc1cc(-c2ccc(OC(F)(F)F)cc2)ncn1)c1ccc(Cl)cc1 (stereo not drawn) [Example 109, 1-(4-Chlorophenyl)-2-[(6-{4-[(trifluoromethyl)oxy]phenyl}pyrimidin-4-yl)amino]ethanol] |  |
| 19 nM | 4 nM | Cc1noc2cc(-c3cc(NC[C@H](O)c4ccccc4)ncn3)ccc12 [Example 165, (1R)-2-{[6-(3-Methyl-1,2-benzisoxazol-6-yl)pyrimidin-4-yl]amino}-1-phenylethanol] |  |
| 15 nM | 25 nM | N#Cc1cccc(C(O)CNc2cc(-c3ccc(C(F)(F)F)c(Cl)c3)ncn2)c1 (stereo not drawn) [Example 206, 3-[2-({6-[3-Chloro-4-(trifluoromethyl)phenyl]pyrimidin-4-yl}amino)-1-hydroxyethyl]benzonitrile] |  |
| 3 nM | 2 nM | O[C@@H](CNc1cc(-c2ccc(C(F)(F)F)c(Cl)c2)ncn1)c1ccc(F)cc1 [Example 62, (1R)-2-({6-[3-Chloro-4-(trifluoromethyl)phenyl]ivrimidin-4-yl}amino)-1-(4-fluorophenyl)ethanol] |  |
